One assay has as its target KRas G12C (Homo sapiens, UniProt P01116, C118S/C51S/C80L/G12C). The experiment in a line: KRas G12C Modification Assay (LCMS detection of covalent adduct). Format: binding. Particulars: normalized percent of control; tested at 5 μM concentration for 3 hours. The method in brief: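 Cys-light KRas G12C mutant protein incubated with compound in K-Ras assay buffer, reactions quenched at set time points with 25 mM acetic acid and analysed by intact-protein LC/MS on a C-3 column. Deconvoluted mass heights expressed as percent of control (POC) relative to compound-free protein.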

In assay [1] the test system is NCI-H358 cells (express KRas G12C), Phospho-ERK. Briefly: Cellular inhibition of KRas G12C: Phospho-ERK in NCI-H358 cells. The format is cell-based. Particulars: Homo sapiens, pERK(Thr202/Tyr204) normalized with GAPDH, NCI-H358 cells, 3 hours, read-out: IC50. The method in brief:
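IC50 derived by 4-parameter fit of GAPDH-normalized pERK(Thr202/Tyr204) signal, as percent of DMSO control. Signal came from in-cell immunodetection with infrared secondaries after 3 h compound exposure of KRas G12C NCI-H358 cells at 0.5% DMSO.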

Counter-ions that a name gives are not always drawn. Like-named read-outs stand apart in the source and are kept apart here.

The term IC50 denotes the concentration that inhibits the measured activity by half. Regarding `C=CC(=O)N1CCN(c2nc(OCCCN3CCOCC3)nc3c2CCN(c2c(C)ccc4[nH]ncc24)C3)CC1` [Example 44, 1-(4-(7-(5-methyl-1H-indazol-4-yl)-2-(3-morpholinopropoxy)-5,6,7,8-tetrahydropyrido[3,4-d]pyrimidin-4-yl)piperazin-1-yl)prop-2-en-1-one], the POC entry at KRas G12C is on record as “C (“C”>50% POC)”. The IC50 in assay [1] was more than 1 µM.
In the case of `C=CC(=O)N1[C@@H]2CC[C@H]1CN(c1nc(OC(C)CN(C)C)nc3c1CCN(c1cc(O)cc4ccccc14)C3)C2` (stereo partly drawn) [Example 45, 1-((1R,5S)-3-(2-((1-(dimethylamino)propan-2-yl)oxy)-7-(3-hydroxynaphthalen-1-yl)-5,6,7,8-tetrahydropyrido[3,4-d]pyrimidin-4-yl)-3,8-diazabicyclo[3.2.1]octan-8-yl)prop-2-en-1-one], the POC result at KRas G12C is given as “A (“A”≤25% POC)”. The IC50 in assay [1] is more than 1 µM.
The corresponding values for `C=CC(=O)N1C[C@H]2CC[C@@H](C1)N2c1nc(OC(C)CN(C)C)nc2c1CCN(c1cc(O)cc3ccccc13)C2` (stereo partly drawn) [Example 46, 1-((1R,5S)-8-(2-((1-(dimethylamino)propan-2-yl)oxy)-7-(3-hydroxynaphthalen-1-yl)-5,6,7,8-tetrahydropyrido[3,4-d]pyrimidin-4-yl)-3,8-diazabicyclo[3.2.1]octan-3-yl)prop-2-en-1-one] are “A (“A”≤25% POC)” and more than 1 µM.
As to `C=CC(=O)N1CCN(c2nc(OCCN(C)C)nc3c2CCN(c2cc(O)cc4ccccc24)C3C)CC1` (stereo not shown) [Example 47, 1-(4-(2-(2-(dimethylamino)ethoxy)-7-(3-hydroxynaphthalen-1-yl)-8-methyl-5,6,7,8-tetrahydropyrido[3,4-d]pyrimidin-4-yl)piperazin-1-yl)prop-2-en-1-one], the POC result at KRas G12C is recorded as “C (“C”>50% POC)”. Besides, the IC50 in assay [1] was more than 1 µM.
`C=CC(=O)N1CCN(c2nc(OCCN(C)C)nc3c2CC(C)N(c2cc(O)cc4ccccc24)C3)CC1` (stereo not shown) [Example 48, 1-(4-(2-(2-(dimethylamino)ethoxy)-7-(3-hydroxynaphthalen-1-yl)-6-methyl-5,6,7,8-tetrahydropyrido[3,4-d]pyrimidin-4-yl)piperazin-1-yl)prop-2-en-1-one trifluoroacetate]: on KRas G12C, the POC result was “C (“C”>50% POC)”. Besides, the IC50 in assay [1] is more than 1 µM.
Consider `C=CC(=O)N1CCN(c2nc(OCCN3CCC(F)C3)nc3c2CCN(c2cc(O)cc4ccccc24)C3)CC1` (stereo not shown) [Example 49, 1-(4-(2-(2-(3-fluoropyrrolidin-1-yl)ethoxy)-7-(3-hydroxynaphthalen-1-yl)-5,6,7,8-tetrahydropyrido[3,4-d]pyrimidin-4-yl)piperazin-1-yl)prop-2-en-1-one], for which, on KRas G12C, the POC entry is listed as “B (“B”>25% POC−≤50% POC)”. For the same compound, the IC50 in assay [1] (NCI-H358, 3 h) was more than 1 µM.
The corresponding values for `C=CC(=O)N1CCN(c2nc(OCCN(C)C)nc3c2CCN(c2cc(O)cc4ccccc24)C3)CC1CO` (stereo not shown) [Example 50, 1-(4-(2-(2-(dimethylamino)ethoxy)-7-(3-hydroxynaphthalen-1-yl)-5,6,7,8-tetrahydropyrido[3,4-d]pyrimidin-4-yl)-2-(hydroxymethyl)piperazin-1-yl)prop-2-en-1-one] are “C (“C”>50% POC)” and more than 1 µM.
For `C=CC(=O)N1CCN(c2nc(OCCN(C)C)nc3c2CCN(c2cc(O)cc4ccccc24)C3)CC1C(=O)N(C)C` (stereo not shown) [Example 51, 1-acryloyl-4-(2-(2-(dimethylamino)ethoxy)-7-(3-hydroxynaphthalen-1-yl)-5,6,7,8-tetrahydropyrido[3,4-d]pyrimidin-4-yl)-N,N-dimethylpiperazine-2-carboxamide], the POC result on KRas G12C is “A (“A”≤25% POC)”. Besides, the IC50 in assay [1] is more than 1 µM.
For `C=CC(=O)N1CCN(c2nc(OCCN3CCCCC3)nc3c2CCN(c2cc(O)cc4ccccc24)C3)CC1` [Example 52, 1-[4-[7-(3-hydroxy-1-naphthyl)-2-[2-(1-piperidyl)ethoxy]-6,8-dihydro-5H-pyrido[3,4-d]pyrimidin-4-yl]piperazin-1-yl]prop-2-en-1-one], the POC result on KRas G12C is “C (“C”>50% POC)”. Moreover, in assay [1] (NCI-H358, 3 h), the IC50 lay in the range of 0.0001 to 1 µM.
Regarding `C=CC(=O)N1CCN(c2nc(OCCN(C)C)nc3c2CCN(c2cc(O)cc4ccccc24)C3)C(CO)C1` (stereo not shown) [Example 53, 1-(4-(2-(2-(dimethylamino)ethoxy)-7-(3-hydroxynaphthalen-1-yl)-5,6,7,8-tetrahydropyrido[3,4-d]pyrimidin-4-yl)-3-(hydroxymethyl)piperazin-1-yl)prop-2-en-1-one], on KRas G12C, the POC entry was “C (“C”>50% POC)”. Besides, the IC50 in assay [1] (NCI-H358, 3 h) is more than 1 µM.
Turning to `C=CC(=O)N1CCN(c2ncnc3c2CCN(c2nc(N)cc4ccccc24)C3)CC1` [Example 54, 1-[4-[7-(3-amino-1-isoquinolyl)-6,8-dihydro-5H-pyrido[3,4-d]pyrimidin-4-yl]piperazin-1-yl]prop-2-en-1-one], the POC entry on KRas G12C is recorded as “A (“A”≤25% POC)”. For the same compound, the IC50 in assay [1] is more than 1 µM.
Consider `C=CC(=O)N1CCN(c2nc(OCC(CO)N(C)C)nc3c2CCN(c2cc(O)cc4ccccc24)C3)CC1` (stereo not shown) [Example 55, 1-(4-(2-(2-(dimethylamino)-3-hydroxypropoxy)-7-(3-hydroxynaphthalen-1-yl)-5,6,7,8-tetrahydropyrido[3,4-d]pyrimidin-4-yl)piperazin-1-yl)prop-2-en-1-one], for which the POC entry on KRas G12C is recorded as “C (“C”>50% POC)”. Also, in assay [1] (NCI-H358, 3 h), the IC50 lay in the range of 0.0001 to 1 µM.
Take `C=CC(=O)N1CCN(c2nc(O[C@H](C)CN3CCOCC3)nc3c2CCN(c2cc(O)cc4ccccc24)C3)CC1` [Example 56, (R)-1-(4-(7-(3-hydroxynaphthalen-1-yl)-2-((1-morpholinopropan-2-yl)oxy)-5,6,7,8-tetrahydropyrido[3,4-d]pyrimidin-4-yl)piperazin-1-yl)prop-2-en-1-one]: the POC result on KRas G12C is given as “C (“C”>50% POC)”. Further, in assay [1] (NCI-H358, 3 h), the IC50 was 0.0001 to 1 µM.
For `C=CC(=O)N1CCN(c2nc(OC[C@@H]3CCC(=O)N3)nc3c2CCN(c2cc(O)cc4ccccc24)C3)CC1` [Example 57, (S)-5-(((4-(4-acryloylpiperazin-1-yl)-7-(3-hydroxynaphthalen-1-yl)-5,6,7,8-tetrahydropyrido[3,4-d]pyrimidin-2-yl)oxy)methyl)pyrrolidin-2-one], in that order: “C (“C”>50% POC)” and more than 1 µM.
For `C=CC(=O)N1CCN(c2nc(OC[C@H]3CCC(=O)N3)nc3c2CCN(c2cc(O)cc4ccccc24)C3)CC1` [Example 58, (R)-5-(((4-(4-acryloylpiperazin-1-yl)-7-(3-hydroxynaphthalen-1-yl)-5,6,7,8-tetrahydropyrido[3,4-d]pyrimidin-2-yl)oxy)methyl)pyrrolidin-2-one], in that order: “C (“C”>50% POC)” and more than 1 µM.
For `C=CC(=O)N1CCN(c2nc(OCCNC(C)=O)nc3c2CCN(c2cc(O)cc4ccccc24)C3)CC1` [Example 59, N-(2-((4-(4-acryloylpiperazin-1-yl)-7-(3-hydroxynaphthalen-1-yl)-5,6,7,8-tetrahydropyrido[3,4-d]pyrimidin-2-yl)oxy)ethyl)acetamide], in that order: “C (“C”>50% POC)” and more than 1 µM.
In the case of `C=CC(=O)N1CCN(c2nc(O[C@H](CC)CN(C)C)nc3c2CCN(c2cc(O)cc4ccccc24)C3)CC1` [Example 60, (R)-1-(4-(2-((1-(dimethylamino)butan-2-yl)oxy)-7-(3-hydroxynaphthalen-1-yl)-5,6,7,8-tetrahydropyrido[3,4-d]pyrimidin-4-yl)piperazin-1-yl)prop-2-en-1-one], the POC result at KRas G12C was “C (“C”>50% POC)”. In addition, the IC50 in assay [1] (NCI-H358, 3 h) was more than 1 µM.
